We go through one compound from US4175081A, “5-Substituted thiadiazole ureas” (priority 1977, dated 1979).

In experiment [1] the test system is Turnip (TP). Put plainly: Post-emergence herbicide test. It is filed as in vivo, Brassica sp. The following applies: Brassica rapa, post-emergence, 336 h; 8 lb/acre; two weeks after treatment. The gist of the method: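 A greenhouse post-emergence herbicide test on turnip. Seeds were sown on the surface of potting soil in 3' plastic pots, lightly covered with screened soil and watered from below. Planting was timed so seedlings had 1 or 2 true leaves above the cotyledons at spraying, done in a hood with a fixed nozzle. Control or injury was scored by eye after two weeks.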

For experiment [2], the system named is Bean (BN). Put plainly: Pre-emergence herbicide test. The following applies: Phaseolus vulgaris, 336 h, 8 lb/acre, two weeks after treatment. It is filed as in vivo, Phaseolus vulgaris var. Black Valentine. Summed up:
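Visual injury/control ratings were taken two weeks post-spray on sub-irrigated Phaseolus vulgaris var. Black Valentine. Pots were sown a day before treatment. Pre-emergence spray delivered 8 lbs actual compound per acre (or 4 lbs/acre) at 38 gallons per acre.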

Experiment [3] has as its system Amaranth pigweed (PW). The experiment in a line: Post-emergence herbicide test. It is filed as in vivo, Amaranthus retroflexus. The settings on record: 336 h, 8 lb/acre, two weeks after treatment. Summed up:
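Visual injury or control ratings were made two weeks after spraying, with greenhouse watering by sub-irrigation only. Treatment was post-emergence, when pigweed seedlings had 1 or 2 true leaves, at 8 lbs active compound per acre (4 lbs/acre formulations also made) in a 38 gallons-per-acre spray volume.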

Experiment [4] concerns Crabgrass (CG). Put plainly: Pre-emergence herbicide test. Format: in vivo, Digitaria sanquinalis. The settings on record: Digitaria sanguinalis, pre-emergence, 336 h; 8 lb/acre; two weeks after treatment. Summed up: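 Crabgrass (Digitaria sanquinalis) was surface seeded in 3' plastic pots of potting soil, covered with screened soil, and watered by sub-irrigation in greenhouse trays. Pots were seeded one day before spraying in a hood with a moving belt and fixed nozzle. Plants stayed in the greenhouse on sub-irrigation, and pre-emergence control was rated visually two weeks after treatment.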

Experiment [5] deals with Corn (CN). The experiment in a line: Post-emergence herbicide test. Format: in vivo. The settings on record: Zea mays, 336 h, 8 lb/acre, two weeks after treatment. The gist of the method: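 Greenhouse seedlings grown in potting soil and sprayed post-emergence at 8 lbs compound/acre (formulations also made for 4 lbs/acre) in 38 gallons/acre spray volume. Watering by sub-irrigation only. Injury or control rated visually two weeks after treatment.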

Experiment [6] concerns Barnyard grass (BG). Put plainly: Post-emergence herbicide test. It is filed as in vivo. The following applies: Echinochloa crus-galli, 336 h, 8 lb/acre, two weeks after treatment. Summed up:
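Greenhouse pot-grown barnyard grass seedlings sprayed post-emergence at 8 lbs active compound per acre (some at 4 lbs/acre) in 38 gallons per acre, then sub-irrigated. Injury or control rated visually two weeks after treatment.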

Experiment [7] has as its system Johnson grass (JG). Put plainly: Pre-emergence herbicide test. The settings on record: Sorghum halepense, 336 h, 8 lb/acre, two weeks after treatment. It is filed as in vivo, Sorgum helepense. The gist of the method: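 Visual injury or control rating two weeks post-treatment, after pre-emergence spray of 8 or 4 lbs active per acre (38 gal/acre) onto pots sown the previous day. Greenhouse watering by sub-irrigation only.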

The subject of experiment [8] is Corn (CN). The experiment in a line: Pre-emergence herbicide test. The following applies: Zea mays, 336 h, 8 lb/acre, two weeks after treatment. It is filed as in vivo. The gist of the method:
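Visual injury/control ratings were made 2 weeks post-spray on corn pots seeded (4 seeds, seed-diameter depth) the day before treatment. Application was a belt-hood spray of 38 gal/acre delivering 8 lbs active per acre, with a 4 lbs/acre rate also formulated. Watering was by sub-irrigation throughout.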

The test system of experiment [9] is Yellow foxtail grass (YF). Put plainly: Post-emergence herbicide test. The settings on record: Setaria, 336 h, 8 lb/acre, two weeks after treatment. It is filed as in vivo, Setaria glauca. Summed up:
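Visual rating of injury/control made 2 weeks post-spray. Seedlings at a uniform growth stage in soil-filled pots received a hood spray of 8 lbs/acre active compound, 38 gallons/acre volume, with a 4 lbs/acre rate also formulated. Watering was by sub-irrigation only.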

Experiment [10] deals with Barnyard grass (BG). Put plainly: Pre-emergence herbicide test. It is filed as in vivo. The settings on record: Echinochloa crus-galli, 336 h, 8 lb/acre, two weeks after treatment. Summed up:
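Greenhouse pre-emergence spray test: pots seeded one day before treatment received compound at rates of 8 or 4 lb/acre (38 gal/acre). Visual injury/control scores for Echinochloa crus-galli taken at two weeks, with watering by sub-irrigation only.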

Experiment [11] relates to Turnip (TP). The experiment in a line: Pre-emergence herbicide test. It is filed as in vivo, Brassica sp. The following applies: Brassica rapa, pre-emergence, 336 h; 8 lb/acre; two weeks after treatment. Summed up:
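In this pre-emergence greenhouse test, turnip was seeded on the surface of potting soil in 3' plastic pots, lightly covered with screened soil, and watered from below. One day later the pots were sprayed in a belt-fed spray hood. Watering continued only by sub-irrigation, and percent control was visually scored two weeks after treatment.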

Experiment [12] has as its system Bean (BN). Put plainly: Post-emergence herbicide test. It is filed as in vivo, Phaseolus vulgaris var. Black Valentine. The following applies: Phaseolus vulgaris, post-emergence, 336 h; 8 lb/acre; two weeks after treatment. Summed up:
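Bean seedlings (Phaseolus vulgaris var. Black Valentine) were grown in potting soil in 3' pots until the primary leaves expanded. They were then sprayed under a hood with a removable belt and fixed nozzle, using 50 ml formulations. Afterward they were returned to the greenhouse and watered only by sub-irrigation. Percent control was judged visually two weeks after treatment.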

Experiment [13] concerns Cotton (CT). The experiment in a line: Pre-emergence herbicide test. The following applies: Gossypium hirsutum, 336 h, 8 lb/acre, two weeks after treatment. Format: in vivo, Gossypium hirsutum var. DPL smooth leaf. Summed up: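 Visual injury/control ratings were taken at two weeks post-spray. Pots seeded a day earlier received compound pre-emergence at 8 lbs/acre, or 4 lbs/acre, in a 38 gallon/acre spray volume, and were then held in the greenhouse, watered only from below.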

The subject of experiment [14] is Amaranth pigweed (PW). The experiment in a line: Pre-emergence herbicide test. Format: in vivo, Amaranthus retroflexus. The settings on record: 336 h, 8 lb/acre, two weeks after treatment. The gist of the method: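 Visual injury or control ratings were made at two weeks on pre-emergence pots, sub-irrigated in the greenhouse. Seeds were sown a day before a hood spray delivering 8 lbs/acre (or 4 lbs/acre) of compound in 38 gallons per acre.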

Experiment [15] relates to Cotton (CT). The experiment in a line: Post-emergence herbicide test. The following applies: Gossypium hirsutum, post-emergence, 336 h; 8 lb/acre; two weeks after treatment. Format: in vivo, Gossypium hirsutum var. DPL smooth leaf. Summed up:
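This greenhouse post-emergence test measured how well spray treatments controlled cotton. Seedlings of Gossypium hirsutum var. DPL smooth leaf, with expanded cotyledons and a first true leaf 1' in length, were sprayed with 50 ml formulations in a belt-fed spray hood. They were then returned to the greenhouse and watered only by sub-irrigation. Injury was scored visually as % control after two weeks.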

The test system of experiment [16] is Crabgrass (CG). The experiment in a line: Post-emergence herbicide test. It is filed as in vivo, Digitaria sanquinalis. The following applies: Digitaria sanguinalis, post-emergence, 336 h; 8 lb/acre; two weeks after treatment. Summed up: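 Crabgrass (Digitaria sanquinalis) was surface seeded individually in 3' plastic pots of potting soil, covered with screened soil, and watered by sub-irrigation in greenhouse trays. Planting was staggered so seedlings reached the target stage together. Post-emergence sprays were applied in a hood with a removable belt and fixed nozzle, and control was visually rated two weeks after treatment.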

Experiment [17] concerns Johnson grass (JG). The experiment in a line: Post-emergence herbicide test. Format: in vivo, Sorgum helepense. The following applies: Sorghum halepense, 336 h, 8 lb/acre, two weeks after treatment. The gist of the method:
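Visual injury or control scores taken 2 weeks after a post-emergence spray of pot-grown plants. Application was 8 lbs/acre (or 4 lbs/acre) in 38 gal/acre. Plants were held in the greenhouse with sub-irrigation only.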

Experiment [18] relates to Yellow foxtail grass (YF). Put plainly: Pre-emergence herbicide test. It is filed as in vivo, Setaria glauca. The settings on record: Setaria, 336 h, 8 lb/acre, two weeks after treatment. Summed up:
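Visual rating of injury/control made two weeks after a pre-emergence spray of 8 or 4 lbs active per acre (38 gal/acre) onto pots seeded the previous day. Greenhouse watering by sub-irrigation only.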

As to `CCSc1nnc(NC(=O)NC)s1` [Example 32], the pest or weed control at 8966.8 g/ha in the experiment with Turnip (TP) [1] is 90%; in the experiment with Bean (BN) [2], 80%; with Amaranth pigweed (PW) [3], 100%; with Crabgrass (CG) [4], 90%; with Corn (CN) [5], 60%; with Barnyard grass (BG) [6], 100%. In addition, the pest or weed control at 8966.8 g/ha in the experiment with Johnson grass (JG) [7] worked out at 70%; in the experiment with Corn (CN) [8] it was 70%; in experiment [9], 90%; in the experiment with Barnyard grass (BG) [10], 90%; in the experiment with Turnip (TP) [11], 90%; in the experiment on Bean (BN) [12] it was 100%. The pest or weed control at 8966.8 g/ha in the experiment on Cotton (CT) [13] worked out at 50%; in the experiment on Amaranth pigweed (PW) [14] it was 100%; with Cotton (CT) [15], 100%; in the experiment with Crabgrass (CG) [16], 100%; in the experiment on Johnson grass (JG) [17] it was 90%; in experiment [18], 90%.
